The values that follow come from patent publication US20150087627A1, “COMBINATION OF KINASE INHIBITORS AND USES THEREOF” (Intellikine LLC, priority 2011, published 2015).

The subject of assay [1] is MDA-MB-361 human breast cancer xenografts. The assay can be described thus: Antitumor activity, multiple dosing schedules, MDA-MB-361 xenografts (Example 41). The format is in vivo, Mus musculus. As to conditions: Day 28. Here is the method: Compound A was prepared in 100% PEG400 every 5-7 days and stored at approximately 25° C., shielded from light. The control article used in this study was 100% PEG400.
Low passage MDA-MB-361 cells were grown in Dulbecco's Modified Eagle's Medium (DMEM) media supplemented with 20% fetal bovine serum (FBS) and 1× penicillin/streptomycin (Invitrogen) until approximately 80% confluency was reached. Prior to injection, the cells were detached with Trypsin (Invitrogen), washed twice with phosphate buffered saline (PBS), and resuspended in RPMI (Roswell Park Memorial Institute) media (Invitrogen) without supplements. Cells were resuspended to a final concentration of 10.0×10^7 cells/mL in DMEM media without supplements, with 50% Matrigel (BD Biosciences). MDA-MB-361 cells (10.0×10^6 cells per animal in 0.1-mL injection volume) were implanted SC into the flank of female athymic nude mice. The animals used in this study are described in the following table.
4-5 week old female athymic nude mice were inoculated SC in flank (cell suspension in serum free DMEM and 50% Matrigel) with 10.0×10^6 MDA-MB-361 cells. Tumor growth was monitored with vernier calipers. The mean TV (MTV) was calculated using the formula V=W^2×L/2. When the MTV reached approximately 280 mm^3, the animals were randomized into 14 treatment groups (n=5/group). […] Tumor growth and body weight were measured twice per week. Percent TGI and body weight change were calculated on Day 28. Treatment started on Day 0 for 28 days. Antitumor activity was determined on day 28 of treatment by calculating the percent TGI using
Percent TGI=(mean tumor volume [MTV] of the control group−MTV of a treated group)/MTV of the control group×100. Equation 1
(§1) The differences in the tumor growth trends over time between pairs of treatment groups were assessed using linear mixed effects regression models. These models account for the fact that each animal was measured at multiple time points. A separate model was fit for each comparison, and the area under the curve (AUC) values for each treatment group were calculated using the predicted values from the model. The percent decrease in AUC (ΔAUC) relative to the reference group was then calculated.
(§2) Drug combinations were assessed for synergy using observed AUC values. The change in AUC relative to the control was calculated for both single agent treatment groups as well as the combination group. The interaction between the two compounds was then assessed by comparing the change in AUC observed in the combination group to the sum of the changes observed in both single agents. The results can be divided into four categories: synergistic, additive, sub-additive, and antagonistic. Further details regarding combination analyses are provided in the appendix. All p values less than 0.05 were considered significant.

Assay [2] relates to PTEN mutant cells. Nature of the assay: Western blot of Akt, S6 and 4EBP phosphorylation in PTEN mutant cells (FIG. 6B). The format is cell-based. (Immunoblotting shows a protein as a band on a membrane.)
The test system of assay [3] is HCC70 human breast cancer xenografts. The assay can be described thus: Antitumor activity, multiple dosing schedules, HCC70 xenografts (Example 43). The format is in vivo, Mus musculus. As to conditions: Day 35. Here is the method:
Compound A was prepared in 5% NMP+95% PEG400 every 5-7 days and stored at approximately 25° C., shielded from light. The control article used in this study was 5% NMP+95% PEG400. Compounds were completely dissolved in NMP by sonication followed by the addition of the appropriate volume of PEG400. The solution was vortexed and sonicated again to ensure complete mixing.
Low passage HCC70 cells (ATCC) were grown in RPMI (Life Technologies) supplemented with 10% Fetal Bovine Serum (FBS) (PAA Laboratories Pty Ltd) and 1× penicillin-streptomycin (Life Technologies) and supplied at a concentration of 5.0×10^7 cells/mL in serum-free RPMI and 50% Matrigel (BD Biosciences). HCC70 cells (5.0×10^6 cells/animal, 0.1-mL injection volume) were implanted subcutaneously (SC) into flank of female athymic nude mice. The animals used in this study are described in the following table.
Five-week old female athymic nude mice were inoculated SC in flank (cell suspension in serum free RPMI and 50% Matrigel) with 5.0×10^6 HCC70 cells. Tumor growth was monitored with vernier calipers. The mean TV (MTV) was calculated using the formula V=W^2×L/2. When the MTV reached approximately 160 to 180 mm^3, the animals were randomized into 13 treatment groups (n=5/group). […] Tumor growth and body weight were measured twice per week. Percent TGI and body weight change were calculated on Day 35. Treatment started on Day 0 for 28 days. Antitumor activity was determined by calculating the percent TGI using Equation 1: Percent TGI=(mean tumor volume [MTV] of the control group−MTV of a treated group)/MTV of the control group×100.
as §1, §2

Assay [4] concerns 786-0 cells, a human kidney carcinoma cell line having a non-mutated PI3Kα. The assay can be described thus: In vivo efficacy in 786-0 kidney carcinoma xenograft. Details: species or system mice. As to conditions: FIG. 6. Here is the method:
Compound A was administered orally at 60 and 120 mg/kg and compound A was administered orally as a solution at 1 mg/kg (QD). For example, a PI3Kα inhibitor is compared to a kinase inhibitor with specificity for mTor. […] FIG. 6C also provides biochemical potency data for the two compared inhibitors. PI3 Kinase α, β, γ and δ activity was assayed using the PI3 Kinase HTRF® assay kit (Millipore Corporation). Purified recombinant PI3Kα, PI3Kβ, PI3Kγ and PI3Kδ were obtained from Millipore Corporation. […] Emission ratios were converted into percent inhibitions and imported into GraphPad Prism software. […] IC50 values were determined using a nonlinear regression model available in GraphPad Prism 5.

Consider `Nc1nc2cc(-c3ccc4ncc(C(=O)N5CCOCC5)n4c3)ccc2o1` [Compound A], for which the TGI in assay [1] (60 mg/kg QD PO) is on record as 84.5%; in assay [1] (70 mg/kg QD 3on/4off PO), 76.0%; in assay [1] (140 mg/kg QD 3on/4off PO), 84.2%; in assay [1] (210 mg/kg QW PO) it was 64.7%; in assay [3] (70 mg/kg QD 3on/4off PO, not significantly different from control), 19.4%; in assay [3] (140 mg/kg QD 3on/4off PO), 41.0%. The inhibition of tumour growth (TGI) in assay [3] (210 mg/kg QW PO, not significantly different from control) was determined as 21.0%; in assay [3] (420 mg/kg QW PO), 40.8%. Besides, in assay [2], the “inhibition of Akt, S6, and 4EBP phosphorylation” value is on record as “not”. The “anti-tumor activity in 786-0 model” value in assay [4] (orally at 60 and 120 mg/kg, compared to MDA derived tumors) is listed as “decreased activity”.
In the case of `CC(C)n1nc(-c2ccc3oc(N)nc3c2)c2c(N)ncnc21` [Compound B], the TGI in assay [1] (0.3 mg/kg QD PO) came to 71.1%; in assay [1] (1.0 mg/kg QD 3on/4off PO), 63.6%; in assay [1] (3.0 mg/kg QW PO) it was 52.7%; in assay [3] (0.3 mg/kg QD PO), 36.9%; in assay [3] (1.0 mg/kg QD 3on/4off PO), 47.2%; in assay [3] (3.0 mg/kg QW PO) it was 35.8%. In addition, the “inhibition of Akt, S6, and 4EBP phosphorylation” value in assay [2] is “selective inhibition”. Further, the “inhibition of kinase activity and tumor growth in 786-0 model” value in assay [4] (orally as a solution at 1 mg/kg (QD)) is on record as “effective”.

As a reminder, the TGI is how far tumour growth fell short of that in controls.
